Where two headings read alike, the source gives them in different places.
Tests used:
[1] = test system: Susceptible Musca domestica; assay: Contact bioassay of emulsified concentrate formulations on filter paper discs; details: EC formulation on filter paper
Method: (§1) A commercially-available permethrin 57 g L^−1 EC (Ectiban EC 57; Universal Cooperatives, Minneapolis, Minn.) was included for comparison. Except rosalva, the 50% EC semiochemical formulations were generated by combining 500 mL AI, 430 mL canola oil (Publix, Lakeland, Fla.), 10 mL xylene, 50 mL Triton X-100 (Acros Organics Nev., Fair Lawn, N.J.) and 10 mL Agsolex-8 (International Specialty Products, Wayne, N.J.). The rosalva formulation contained all of the above-mentioned ingredients, with canola oil concentration reduced to 400 mL L^−1, Triton X-100 concentration increased to 75 mL L^−1, and 5 mL L^−1 Antifoam B silicone emulsion (Mallinckrodt Baker, Phillipsburg, N.Y.) included.
Briefly, Whatman No. 1 filter paper discs (63.58 cm^2) are impregnated with 1.5 ml serially diluted formulations in 20 emulsified concentrates and 50 emulsified concentrates, respectively, and subsequently dried for about an hour. Then, house flies are divided into seven sets: three sets as the experiment, three sets as the positive control, and one set as the negative control. Each set consists of twenty six-to-ten-day old adult flies. […] The positive control set is exposed to paper discs impregnated with geranyl acetone, rosalva or citronellol. The negative control set is exposed to paper discs impregnated with acetone solution. Throughout the exposure periods, each set is provided with 10% sucrose solution and sufficient air circulation. Ataxic flies are considered dead. The mortality rate and the LC values are determined using the same procedures as is illustrated in Example 2.

Aedes aegypti [2] = details: formulation on plywood panels at 1.67 mg cm^−2, 2 h exposure, mortality 24 h after initial exposure
Method: Briefly, after mosquitoes are assayed on unpainted plywood panel boards with formulation at a concentration of 1.67 mg cm^−2 for 2 hours, they are transferred into a separate glass jar, and held for another 24 hours. The mortality rate is measured daily for a continuous 4 days (Day 1 starts at 24 hours after the transfer), as is determined using the same procedures as are illustrated in Example 2.
Plywood panels (225 cm^2) were treated with chemicals at a rate of 1.67 mg cm^−2. Panels were treated on day 0 and was held until exposure on post-treatment day. Mosquitoes were exposed to chemicals for 2 h, and mortality rate was assessed 24 h after initial exposure. Control contained formulation ingredients without semiochemicals.

Aedes aegypti [3] = details: formulation on military fabric at LC99-based concentration, 2 h exposure, mortality 24 h after initial exposure
Method: Briefly, after mosquitoes are exposed to formulations for 2 hours at a concentration of LC99, each set is transferred into a separate glass jar, and held for another 24 hours. The mortality rate is measured with new mosquitoes on post-treatment days 2, 3, 5, 8 and 14 (Day 1 starts at 24 hours after the transfer), and is determined using the same procedures as are illustrated in Example 2.
Concentrations were generated from technical-based LC99 values obtained from a 2 h exposure period on military fabric. Fabric was treated on day 0 and was held until exposure on post-treatment day. Mosquitoes were exposed for 2 h, and mortality rate was assessed 24 h after initial exposure. Control contained formulation ingredients without semiochemicals.

Aedes aegypti [4] = details: EC formulation on military fabric
Method: as §1
Briefly, a piece of 10×10 cm^2 fabric (TenCate Defender™) is impregnated with 2 ml of serially diluted 20-emulsifiable concentrate or 50-emulsifiable concentrate formulations, respectively, and subsequently dried for about an hour. Also, six-to-ten-day-old, never blood-fed, adult female Ae. aegypti mosquitoes are obtained. The mosquitoes are divided into seven sets: three sets as the experiment, three sets as the positive control, and one set as the negative control. Each set consists of 20 mosquitoes. […] The positive control set is exposed to fabric pieces treated with geranyl acetone, rosalva or citronellol. The negative control set is exposed to fabric pieces treated with acetone solution. Throughout the exposure periods, each set is provided with 10% sucrose solution and sufficient air circulation. Ataxic mosquitoes are considered dead. The mortality rate and the LC values are determined using the same procedures as are illustrated in Example 2.

Structure (SMILES) | LC90 ([1]; 24 h constant exposure) [μg cm^−2] | LC90 ([1]; 48 h constant exposure) [μg cm^−2] | % mortality on various days following treatment (Aedes aegypti [2]; day 1) | % mortality on various days following treatment (Aedes aegypti [2]; day 2) | % mortality on various days following treatment (Aedes aegypti [2]; day 3) | % mortality on various days following treatment (Aedes aegypti [2]; day 4) | % mortality on various days following treatment (Aedes aegypti [3]; day 1) [a %] | % mortality on various days following treatment (Aedes aegypti [3]; day 2) [a %] | % mortality on various days following treatment (Aedes aegypti [3]; day 3) | % mortality on various days following treatment (Aedes aegypti [3]; day 5) [b %] | % mortality on various days following treatment (Aedes aegypti [3]; day 8) | % mortality on various days following treatment (Aedes aegypti [3]; day 14) | LC90 (Aedes aegypti [4]; exposure period 2 hours) [μg cm^−2] | LC90 (Aedes aegypti [4]; exposure period 4 hours) [μg cm^−2] | LC90 (Aedes aegypti [4]; exposure period 24 hours) [μg cm^−2]
C=CCCCCCCCCO [Rosalva, rosalva] | 1054.32 | 1022.88 | 58.00b % | 34.0c % | 11.0% | 3.25.c % | 95.00 | 87.50 | 65.00b % | 35.00 | 27.50a % | 0.00d % | 1276.16 | 1262.11 | 500.92
CC(=O)CC/C=C(\C)CCC=C(C)C [Geranyl acetone, geranyl acetone] | 1227.00 | 716.72 | 84.00a % | 25.0c % | 8.0c % | 5.0c % | 91.25 | 83.00 | 30.00c % | 32.50 | 17.50c % | 5.00c % | 934.62 | 742.61 | 338.61
CC(C)=CCCC(C)CCO (stereo not shown) [Citronellol, citronellol] | 580.00 | 886.04 | 94.00a % | 61.0b % | 26.0b % | 10.0b % | 95.00 | 77.50 | – | 35.00 | – | 2.50cd % | 1938.19 | 1434.18 | 700.43

— US8772348B2, “Materials and methods for pest control” (priority 2009, dated 2014)
